Data published in US7973033B2, “Multi-cyclic cinnamide derivatives” (Eisai R&D Management Co., Ltd., priority 2006, dated 2011).

Each compound was assayed on Aβ 42 production (assay: Quantification of Aβ Peptide in Culture of Neurons from Rat Fetus Brain). Details: Neuron, 72 h; rat primary neuronal culture (cerebral cortex, embryonic day 18 Wistar rats); medium collected three days after addition of the compound; Aβ ELISA; read-out: Effect of reducing Aβ 42 production IC50.
Format: cell-based
Protocol: Quantification of Aβ Peptide in Culture of Neurons from Rat Fetus Brain
(1) Rat Primary Neuronal Culture
Primary neuronal cultures were prepared from the cerebral cortex of embryonic day 18 Wistar rats (Charles River Japan, Yokohama, Japan). Specifically, the embryos were aseptically removed from pregnant rats under ether anesthesia. The brain was isolated from the embryo and immersed in an ice-cold L-15 medium (Invitrogen Corp. Cat #11415-064, Carlsbad, Calif., USA, or SIGMA L1518, for example). The cerebral cortex was collected from the isolated brain under a stereoscopic microscope. The cerebral cortex fragments collected were enzymatically treated in an enzyme solution containing 0.25% trypsin (Invitrogen Corp. Cat #15050-065, Carlsbad, Calif., USA) and 0.01% DNase (Sigma D5025, St. Louis, Mo., USA) at 37° C. for 30 minutes to disperse the cells. Here, the enzymatic reaction was stopped by adding inactivated horse serum to the solution. The enzymatically treated solution was centrifuged at 1,500 rpm for five minutes to remove the supernatant. 5 to 10 ml of a medium was added to the resulting cell mass. Neurobasal medium (Invitrogen Corp. Cat #21103-049, Carlsbad, Calif., USA) supplemented with 2% B27 supplement (Invitrogen Corp. Cat #17504-044, Carlsbad, Calif., USA), 25 μM 2-mercaptoethanol (2-ME, WAKO Cat #139-06861, Osaka, Japan), 0.5 mM L-glutamine (Invitrogen Corp. Cat #25030-081, Carlsbad, Calif., USA), and Antibiotics-Antimycotics (Invitrogen Corp. Cat #15240-062, Carlsbad, Calif., USA) was used as the medium (Neurobasal/B27/2-ME). However, the above Neurobasal medium not supplemented with 2-ME (Neurobasal/B27) was used for the assay. The cells were redispersed by mild pipetting of the cell mass to which the medium was added. The cell dispersion was filtered through a 40-μm nylon mesh (Cell Strainer, Cat #35-2340, Becton Dickinson Labware, Franklin Lakes, N.J., USA) to remove the remaining cell mass, and thus a neuronal cell suspension was obtained. The neuronal cell suspension was diluted with the medium and then plated in a volume of 100 μl/well at an initial cell density of 5×10^5 cells/cm^2 in a 96-well polystyrene culture plate pre-coated with poly-L or D-lysine (Falcon Cat #35-3075, Becton Dickinson Labware, Franklin Lakes, N.J., USA coated with poly-L-lysine using the method shown below, or BIOCOAT™ cell environments Poly-D-lysine cell ware 96-well plate, Cat #35-6461, Becton Dickinson Labware, Franklin Lakes, N.J., USA). Poly-L-lysine coating was carried out as follows. 100 μg/ml of a poly-L-lysine (SIGMA P2636, St. Louis, Mo., USA) solution was aseptically prepared with a 0.15 M borate buffer (pH 8.5). 100 μl/well of the solution was added to the 96-well polystyrene culture plate and incubated at room temperature for one or more hours or at 4° C. overnight or longer. The coated 96-well polystyrene culture plate was washed with sterile water four or more times, and then dried or rinsed with, for example, sterile PBS or medium, and used for cell plating. The plated cells were cultured in the culture plate at 37° C. in 5% CO2-95% air for one day. Then, the total amount of the medium was replaced with a fresh Neurobasal™/B27/2-ME medium, and then the cells were cultured for further three days.
The drug was added to the culture plate on Day 4 of culture as follows. The total amount of the medium was removed from the wells, and 180 μl/well of Neurobasal medium not containing 2-ME and containing 2% B-27 (Neurobasal/B27) was added thereto. A solution of the test compound in dimethyl sulfoxide (hereinafter abbreviated as DMSO) was diluted with Neurobasal/B27 at 10-fold of the final concentration. 20 μl/well of the dilution was added to and sufficiently mixed with the medium. The final DMSO concentration was 1% or less. Only DMSO was added to the control group.
The cells were cultured for three days after addition of the compound, and the total amount of the medium was collected. […]
For `COc1cc(/C=C/c2nc(-c3ccccc3)c[nH]2)ccc1-n1cnc(C)c1` [Example 4, 2-{(E)-2-[3-methoxy-4-(4-methyl-1H-imidazol-1-yl)phenyl]vinyl}-4-phenyl-1H-imidazole], the IC50 was 76 nM. In the case of `COc1cc(/C=C/c2nc3n(n2)CCO[C@H]3c2cc(F)c(F)c(F)c2)ccc1-n1cnc(C)c1` (single isomer, unassigned) [Example 77, (−)-2-{(E)-2-[3-methoxy-4-(4-methyl-1H-imidazol-1-yl)phenyl]vinyl}-8-(3,4,5-trifluorophenyl)-5,6-dihydro-8H-[1,2,4]triazolo[5,1-c][1,4]oxazine], the IC50 is reported as 83 nM. With `COc1cc(/C=C/c2nc3n(n2)CCOC3c2ccc(Br)cc2)ccc1-n1cnc(C)c1` (single isomer, unassigned; (-)) [Example 143, (−)-8-(4-bromophenyl)-2-{(E)-2-[3-methoxy-4-(4-methyl-1H-imidazol-1-yl)phenyl]vinyl}-5,6-dihydro-8H-[1,2,4]triazolo[5,1-c][1,4]oxazine] the IC50 was 22 nM. Work on `COc1cc(/C=C/c2nc3n(n2)CCC[C@@H]3c2c(F)cc(F)cc2F)ccc1-n1cnc(C)c1` (single isomer, unassigned) [Example 64, (−)-2-{(E)-2-[3-methoxy-4-(4-methyl-1H-imidazol-1-yl)phenyl]vinyl}-8-(2,4,6-trifluorophenyl)-5,6,7,8-tetrahydro[1,2,4]triazolo[1,5-a]pyridine] yielded an IC50 of 28 nM. Compound `COc1cc(/C=C/c2nc3n(n2)CCC[C@@H]3c2ccc(Cl)cc2)ccc1-n1cnc(C)c1` (single isomer, unassigned) [Example 149, (−)-8-(4-chlorophenyl)-2-{(E)-2-[3-methoxy-4-(4-methyl-1H-imidazol-1-yl)phenyl]vinyl}-5,6,7,8-tetrahydro[1,2,4]triazolo[1,5-a]pyridine] has an IC50 of 21 nM. `COc1cc(/C=C/c2nc3n(n2)CCC[C@@H]3c2ccc(OC(F)(F)F)cc2)ccc1-n1cnc(C)c1` [Example 129, (−)-2-{(E)-2-[3-methoxy-4-(4-methyl-1H-imidazol-1-yl)phenyl]vinyl}-8-(4-trifluoromethoxyphenyl)-5,6,7,8-tetrahydro[1,2,4]triazolo[1,5-a]pyridine] was tested, and the IC50 was 17 nM. `COc1cc(/C=C/c2nc3n(n2)CCCC3(O)c2cc(F)c(F)c(F)c2)ccc1-n1cnc(C)c1` (single isomer, unassigned) [Example 66, (−)-2-{(E)-2-[3-methoxy-4-(4-methyl-1H-imidazol-1-yl)phenyl]vinyl}-8-(3,4,5-trifluorophenyl)-5,6,7,8-tetrahydro[1,2,4]triazolo[1,5-a]pyridin-8-ol] showed an IC50 of 20 nM. Compound `COc1cc(/C=C/c2nc3n(n2)CCOC3c2ccc(OC(F)(F)F)cc2)ccc1-n1cnc(C)c1` (single isomer, unassigned) [Example 135, (−)-2-{(E)-2-[3-methoxy-4-(4-methyl-1H-imidazol-1-yl)phenyl]vinyl}-8-(4-trifluoromethoxyphenyl)-5,6-dihydro-8H-[1,2,4]triazolo[5,1-c][1,4]oxazine] has an IC50 of 43 nM. `COc1cc(/C=C/c2nc3n(n2)CCCC3c2cc(F)c(F)c(F)c2)ccc1-n1cnc(C)c1` (single isomer, unassigned) [Example 54, (−)-2-{(E)-2-[3-methoxy-4-(4-methyl-1H-imidazol-1-yl)phenyl]vinyl}-8-(3,4,5-trifluorophenyl)-5,6,7,8-tetrahydro[1,2,4]triazolo[1,5-a]pyridine] showed an IC50 of 14 nM. Compound `COc1cc(/C=C/c2nc(-c3ccc(F)cc3)c(CO)[nH]2)ccc1-n1cnc(C)c1` [Example 7, 5-(4-fluorophenyl)-2-{(E)-2-[3-methoxy-4-(4-methyl-1H-imidazol-1-yl)phenyl]vinyl}-(1H-imidazol-4-yl)methanol] has an IC50 of 67 nM. Work on `COC(=O)c1[nH]c(/C=C/c2ccc(-n3cnc(C)c3)c(OC)c2)nc1-c1ccc(F)cc1` [Example 6, methyl 5-(4-fluorophenyl)-2-{(E)-2-[3-methoxy-4-(4-methyl-1H-imidazol-1-yl)phenyl]vinyl}-1H-imidazole-4-carboxylate] yielded an IC50 of 60 nM. For `COC(=O)c1nc2n(c1-c1ccc(F)cc1)CCC/C2=C\c1ccc(-n2cnc(C)c2)c(OC)c1` [Example 21, methyl 3-(4-fluorophenyl)-8-{1-[3-methoxy-4-(4-methyl-1H-imidazol-1-yl)phenyl]-(E)-methylidene}-5,6,7,8-tetrahydroimidazo[1,2-a]pyridine-2-carboxylate], the IC50 was 41 nM. With `COc1cc(/C=C/c2nc3n(n2)CCC[C@]3(O)c2ccc(C)cc2)ccc1-n1cnc(C)c1` (single isomer, unassigned) [Example 155, (−)-2-{(E)-2-[3-methoxy-4-(4-methyl-1H-imidazol-1-yl)phenyl]vinyl}-8-p-tolyl-5,6,7,8-tetrahydro[1,2,4]triazolo[1,5-a]pyridin-8-ol] the IC50 was 39 nM. `COc1cc(/C=C/c2nc(-c3ccccc3)cn2C)ccc1-n1cnc(C)c1` [Example 5, 2-{(E)-2-[3-methoxy-4-(4-methyl-1H-imidazol-1-yl)phenyl]vinyl}-1-methyl-4-phenyl-1H-imidazole] showed an IC50 of 18 nM. In the case of `COc1cc(/C=C/c2nc(-c3ccc(F)cc3)c(C(=O)NCCCl)[nH]2)ccc1-n1cnc(C)c1` [Example 9, 5-(4-fluorophenyl)-2-{(E)-2-[3-methoxy-4-(4-methyl-1H-imidazol-1-yl)phenyl]vinyl}-1H-imidazole-4-carboxylic acid (2-chloroethyl)amide], the IC50 is reported as 83 nM. `COc1cc(/C=C/c2nnc(C(C)c3ccc(F)cc3)[nH]2)ccc1-n1cnc(C)c1` (racemic) [Example 31, 3-[1-(4-fluorophenyl)ethyl]-5-{(E)-2-[3-methoxy-4-(4-methyl-1H-imidazol-1-yl)phenyl]vinyl}-4H-[1,2,4]triazole] was tested, and the IC50 was 33 nM. Compound `COc1cc(/C=C2\CCCn3c(-c4ccc(F)cc4)cnc32)ccc1-n1cnc(C)c1` [Example 18, 3-(4-fluorophenyl)-8-{1-[3-methoxy-4-(4-methyl-1H-imidazol-1-yl)phenyl]-(E)-methylidene}-5,6,7,8-tetrahydroimidazo[1,2-a]pyridine] has an IC50 of 170 nM. For `COC(=O)c1c(-c2ccc(F)cc2)nc2n1CCC/C2=C\c1ccc(-n2cnc(C)c2)c(OC)c1` [Example 22, methyl 2-(4-fluorophenyl)-8-{1-[3-methoxy-4-(4-methyl-1H-imidazol-1-yl)phenyl]-(E)-methylidene}-5,6,7,8-tetrahydroimidazo[1,2-a]pyridine-3-carboxylate], the IC50 was 170 nM. In the case of `COc1cc(/C=C/c2nc(-c3ccc(F)cc3)c3n2CCNC3=O)ccc1-n1cnc(C)c1` [Example 10, 1-(4-fluorophenyl)-3-{(E)-2-[3-methoxy-4-(4-methyl-1H-imidazol-1-yl)phenyl]vinyl}-6,7-dihydro-5H-imidazo[1,5-a]pyrazin-8-one], the IC50 is reported as 130 nM. With `COc1cc(/C=C/c2nc3n(n2)CCCC3c2ccc(C)cc2)ccc1-n1cnc(C)c1` (single isomer, unassigned) [Example 151, (−)-2-{(E)-2-[3-methoxy-4-(4-methyl-1H-imidazol-1-yl)phenyl]vinyl}-8-p-tolyl-5,6,7,8-tetrahydro[1,2,4]triazolo[1,5-a]pyridine] the IC50 was 16 nM. `COc1cc(/C=C/c2nnc(C(C)(C)c3ccccc3)[nH]2)ccc1-n1cnc(C)c1` [Example 49, 3-{(E)-2-[3-methoxy-4-(4-methyl-1H-imidazol-1-yl)phenyl]vinyl}-5-(1-methyl-1-phenylethyl)-4H-[1,2,4]triazole] was tested, and the IC50 was 63 nM.
